Measurements published in publication PMC9284540 (Journal of Molecular Biology, 2022).
“And” between values parts separate entries of the source, which are not always exact repeats. Identical values can stand only once.

How the values were obtained:
SARS-CoV-2 MD [1] = biological target: T1, SARS-CoV-2 MD (Severe acute respiratory syndrome coronavirus 2, UniProt P0DTD1); assay type: binding
MAYV MD [2] = biological target: T2, MAYV MD (Mayaro virus, UniProt Q8QZ73); assay type: biochemical
CHIKV MD [3] = biological target: T3, CHIKV MD (Chikungunya virus, UniProt Q8JUX6); test: biochemical; assay type: binding
T3 sequence (Q8JUX6 1334-1493 limits assumed): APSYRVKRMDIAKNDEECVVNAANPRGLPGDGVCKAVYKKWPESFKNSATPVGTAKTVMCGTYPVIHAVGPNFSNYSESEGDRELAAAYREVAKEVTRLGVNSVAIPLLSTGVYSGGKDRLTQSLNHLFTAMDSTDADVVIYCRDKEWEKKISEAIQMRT

CHIKV MD [4] = biological target: T3, CHIKV MD; assay type: biochemical
CHIKV MD [5] = biological target: T3, CHIKV MD; assay type: binding
SARS-CoV-2 MD [6] = biological target: T1, SARS-CoV-2 MD; assay type: biochemical
viral MDs = assay type: biochemical
SARS-CoV-2 MD [7] = biological target: T1, SARS-CoV-2 MD; assay type: binding; remark: listed apart in the source
hPARP14 MD2 = hPARP14 MD2 (Homo sapiens, UniProt Q460N5); test: biochemical; assay type: binding
Sequence of hPARP14 MD2 (Q460N5 999-1191): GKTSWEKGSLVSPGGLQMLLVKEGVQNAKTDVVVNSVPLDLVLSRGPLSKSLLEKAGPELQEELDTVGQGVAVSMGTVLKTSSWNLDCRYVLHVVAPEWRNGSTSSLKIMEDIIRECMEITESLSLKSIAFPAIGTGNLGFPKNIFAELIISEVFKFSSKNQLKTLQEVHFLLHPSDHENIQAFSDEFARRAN

MAYV MD [8] = biological target: T2, MAYV MD; assay type: binding

T2 sequence (Q8QZ73 1335-1493 limits assumed): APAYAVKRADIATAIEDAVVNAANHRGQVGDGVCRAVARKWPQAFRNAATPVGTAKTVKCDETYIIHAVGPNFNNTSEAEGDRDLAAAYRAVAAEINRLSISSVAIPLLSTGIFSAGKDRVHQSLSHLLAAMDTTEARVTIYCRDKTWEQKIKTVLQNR

| SMILES | exchange regime on NMR time scale between free and bound form (SARS-CoV-2 MD [1]) | Initial substrate decay rate k (MAYV MD [2]) | Kd (CHIKV MD [3]) [µM] | Initial substrate decay rate k (CHIKV MD [4]) [µM/min] | exchange regime on NMR time scale (CHIKV MD [5]) | Initial substrate decay rate k (SARS-CoV-2 MD [6]) | reduction of the k value (SARS-CoV-2 MD [6]) [%] | reduction of the k value (viral MDs) | -T*ΔS (SARS-CoV-2 MD [7]) [kcal/mol] | ΔH (SARS-CoV-2 MD [7]) [kcal/mol] | ΔS (SARS-CoV-2 MD [7]) | Kd (hPARP14 MD2) [µM] | exchange regime on NMR time scale (MAYV MD [8]) |
| --- | --- | --- | --- | --- | --- | --- | --- | --- | --- | --- | --- | --- | --- |
| Nc1ncnc2c1ncn2[C@@H]1O[C@H](CO)[C@@H](O)[C@H]1O [Adenosine] | fast exchange regime | – | – | – | – | – | – | – | – | – | – | – | – |
| N#C[C@@]1(c2ccc3c(N)ncnn23)O[C@H](CO)[C@@H](O)[C@H]1O [GS-441524] | slow exchange regime | 0.190 ± 0.002 µM/min and 0.153 ± 0.003 µM/min | ~100 | 0.179 ± 0.003 | fast and intermediate exchange regime | 0.121 ± 0.002 µM/min and 0.075 ± 0.003 µM/min | 60 | 15–32% | -1.55 | -5.25 ± 0.13 | +5.2 cal/mol K-1 | ~250 | fast and intermediate exchange regime |
| CCC(CC)COC(=O)[C@H](C)N[P@](=O)(OC[C@H]1O[C@@](C#N)(c2ccc3c(N)ncnn23)[C@H](O)[C@@H]1O)Oc1ccccc1 [Remdesivir] | – | – | – | – | – | 0.157 ± 0.012 µM/min and 0.169 ± 0.002 µM/min | – | – | – | – | – | – | – |
